Assay results taken from PMC7822874, “Chemoprotective antimalarials identified through quantitative high-throughput screening of Plasmodium blood and liver stage parasites” (Scientific Reports, 2021).
Several values for one entry are separate records, joined by “and”; a condition that tells them apart may be missing. Identical values can stand only once. Like-named read-outs stand apart in the source and are kept apart here.

What was measured:
HepG2-A16-CD81EGFP cells = conditions: for Average HepG2 3 µM response( %): averaged response (percent)
[1] = tested on: P. falciparum Dd2 (clone B2) asexual blood stage parasites; experiment: P. falciparum Dd2 asexual blood stage SYBR Green-I 72 h proliferation assay (qHTS); format: cell-based, Plasmodium falciparum; conditions: for Pf ABS Log AC50 (M): averaged P. falciparum asexual blood stage potency, log10 of AC50 in M
[2] = tested on: P. berghei-ANKA-GFP-LucCON liver stage parasites in HepG2-A16-CD81EGFP cells; experiment: P. berghei liver stage Pb-Luc assay, Method 1 (UCSD, 1536-well); format: cell-based, Plasmodium berghei; conditions: for Average P. berghei 3 µM response( %) / Average P. berghei 1 µM response (%): P. berghei liver stage, averaged response (percent); for Average P. berghei 1 µM response (%): the header list (r8) defines it as the 1 µM dose; for AC50 / activity at 1 µM / activity at 3 µM: Plasmodium berghei; for AC50 / Max Resp (signal direction of the dose response): Method 1; for Max Resp (signal direction of the dose response): Decrease = decreasing P. berghei viability with dose, Increase = increasing signal, Inactive = no dose response; for activity at 1 µM / activity at 3 µM: 48 h, average of 2 wells, 1536-well plate; for activity at 1 µM: nominal 1 uM (10 mM stock), […] for 15 mM, 1.2 uM for 12 mM, 2 uM for 20 mM stock; for activity at 3 µM: nominal 3 uM (10 mM stock), 4.5 uM for 15 mM, 3.6 uM for 12 mM, 6 uM for 20 mM stock
[3] = tested on: luciferase-expressing P. berghei liver stage parasites in HepG2 cells; experiment: Inhibition of liver-stage development assay (ILSDA), Method 2 (WRAIR, 96-well); format: cell-based, Plasmodium berghei; conditions: for Max Resp (signal direction of the dose response) / AC50 / Log AC50 (M): Method 2; for Max Resp (signal direction of the dose response): Decrease = decreasing P. berghei viability with dose, Increase = increasing signal, Inactive = no dose response; for AC50: Hill fit, 50% of maximum activity response, read-out: AC50; for Log AC50 (M): log10 of molar AC50 from Hill fit; for Activity direction (Decrease / Inactive): P. berghei liver stage, Method 2, dose response
[4] = tested on: T1, Plasmodium falciparum Dd2-attB (parental line), asexual blood stages; experiment: microbe, parasite or virus in culture; parameters: replicate k of 3 (each line is one of three independent assays; the three lines of one compound and parasite line follow each other); conditions: n = 1; for Individual replicates / Log AC50 (M): 72 h; for AC50: Plasmodium falciparum, DD2, 72 h, read-out: Individual replicates / Log AC50 (converted)
T1 construct: Dd2-attB, the isogenic parental line
Procedure, shortened: (§1)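 Both lines were tested side by side with selected compounds, repeated in three independent assays. Differences between parental and ScDHODH-expressing parasites were then assessed with a two-sided Student's t-test.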

[5] = tested on: T2, Plasmodium falciparum Dd2-attB-ScDHODH (transgenic line expressing yeast DHODH), asexual blood stages; experiment: organism not typed; parameters: replicate k of 3 (each line is one of three independent assays; the three lines of one compound and parasite line follow each other); conditions: 72 h, n = 1
T2 construct: Dd2-attB-ScDHODH, the transgenic line that expresses yeast DHODH
Procedure, shortened: as §1

[6] = tested on: Plasmodium falciparum Dd2 asexual blood stage parasites; experiment: microbe, parasite or virus in culture; parameters: species or system Plasmodium falciparum Dd2 in human erythrocytes; single determination (one 11-point concentration-response curve); conditions: Plasmodium falciparum, DD2, Erythrocyte, 72 h; read-out: AC50
in vitro = conditions: human, HepG2-A16-CD81EGFP cells, uninfected
[7] = HepG2, the header list (r10) describes it as the 1 µM dose
[8] = Hill fit, 50% of maximum activity response, read-out: AC50
[9] = log10 of molar AC50 from Hill fit, read-out: Log AC50 (converted)
[10] = repeat 1, read-out: Pb-Luc signal, 1 uM, repeat 1
[11] = repeat 2, read-out: Pb-Luc signal, 1 uM, repeat 2
[12] = repeat 3, read-out: Pb-Luc signal, 1 uM, repeat 3
[13] = repeat 1, read-out: Pb-Luc signal, 3 uM, repeat 1
[14] = repeat 2, read-out: Pb-Luc signal, 3 uM, repeat 2
[15] = repeat 3, read-out: Pb-Luc signal, 3 uM, repeat 3

Compound | Average HepG2 3 µM response( %) (HepG2-A16-CD81EGFP cells; HepG2, 3 µM dose) | Average HepG2 3 µM response( %) (HepG2-A16-CD81EGFP cells; [7]) | Pf ABS Log AC50 (M) [1] | Average P. berghei 3 µM response( %) [2] | Average P. berghei 1 µM response (%) [2] | other results
CCCCCC(=O)O[C@]1(C(C)=O)CC[C@H]2[C@@H]3CCC4=CC(=O)CC[C@]4(C)[C@H]3CC[C@@]21C [MLS000028438] | 104% | 104% | -5.700 M | 29% | 85% | –
CCOC(=O)c1cn(CC)c2cc(N3CCSCC3)c(F)cc2c1=O [MLS000038775] | 85% | 89% | -6.012 M | 21% | – | –
Clc1ccc(-c2nnc(N3CCCC3)nn2)cc1 [MLS000038815] | 104% | 104% | -5.512 M | 153% | 160% | –
Oc1cc2c(cc1CN1CCN(c3ccccc3)CC1)CCC2 [MLS000058156] | 101% | 102% | -5.587 M | 107% | 92% | –
O=C(Nc1ccc(Cl)cc1)Nc1ccc2c(c1)N1CCN=C1S2 [MLS000078440] | 94% | 98% | -5.612 M | 69% | – | –
CCCCn1c2c(c(=N)c3c1CCC3)CCC2 [MLS000080126] | 80% | 110% | -5.587 M | 4% | 41% | –
N=c1c2c(n(Cc3ccccc3)c3c1CCC3)CCC2 [MLS000080128] | 74% | 94% | -5.712 M | 16% | 14% | –
Cc1ccc(-n2c(C)cc(C(=O)OCC(=O)N(C)C3CCS(=O)(=O)C3)c2C)cc1 (stereo not shown) [MLS000098265] | 101% | 101% | -5.487 M | 106% | 136% | –
COc1ccccc1NC(=O)CN1CCN(C(=O)c2ccco2)CC1 [MLS000122729] | 102% | 102% | -5.462 M | 65% | 115% | –
COc1cc(Br)c(C(C)NC(=O)c2cccc(Br)c2)cc1OC (stereo not shown) [MLS000325399] | 93% | 98% | -5.887 M | 70% | 107% | –
COc1cccc(CNCC(O)(c2ccc(Cl)cc2)c2ccc(Cl)cc2)c1 [MLS000325699] | 101% | 105% | -5.812 M | 98% | 112% | –
O=C(Nc1c(C(=O)c2ccccc2)oc2ccccc12)c1cc(-c2ccccc2O)n[nH]1 [MLS000331861] | 101% | 103% | -5.837 M | 116% | 84% | –
COc1cccc(OC)c1C(=O)NC(S)=Nc1ccc2c(c1)C(=O)N(C)C2=O [MLS000331897] | 104% | 104% | -6.025 M | 113% | 122% | –
Oc1ccc(-c2nnc(S)n2-c2ccc3c(c2)OCCO3)c(O)c1 [MLS000332001] | 95% | 101% | -6.012 M | 70% | 78% | –
OC(CN1CCN(c2ccccn2)CC1)Cn1c2ccc(Cl)cc2c2cc(Cl)ccc21 (stereo not shown) [MLS000529159] | 102% | 102% | -5.612 M | 77% | 108% | –
Cc1ccc(C)c(NC2=C(c3ccc(C(F)(F)F)cc3)C(=O)c3ccccc32)c1 [NCGC00107302-01] | – | – | – | – | – | Max Resp (signal direction of the dose response) [3]: Decrease; AC50 [3]: 501 nM; Log AC50 (M) [3]: -6.300 M; Individual replicates / Log AC50 (M) [4]: -5.6986 Log AC50 (M) and -5.7486 Log AC50 (M); AC50 [4]: 1130 nM; Individual replicates / Log AC50 (M) [5]: -4.9986 Log AC50 (M) and -5.0486 Log AC50 (M); AC50 ([5]; read-out: Individual replicates / Log AC50 (converted)): 7970 nM; AC50 [2, 8]: 1580 nM; AC50 [2, 9]: 1580 nM; AC50 [6]: 4730 nM
COc1ccc(NC2=C(c3ccc(C(F)(F)F)cc3)C(=O)c3ccccc32)cc1 [NCGC00107310-01] | – | – | – | – | – | Max Resp (signal direction of the dose response) [3]: Decrease; AC50 [3]: 141 nM; Log AC50 (M) [3]: -6.850 M; Individual replicates / Log AC50 (M) [4]: -6.3486 Log AC50 (M) and -6.1486 Log AC50 (M) and -6.1986 Log AC50 (M); Individual replicates / Log AC50 (M) [5]: -5.7986 Log AC50 (M) and -5.8986 Log AC50 (M) (2×); Max Resp (signal direction of the dose response) [2]: Decrease; AC50 [2, 8]: 1780 nM; AC50 [2, 9]: 1780 nM; AC50 [6]: 2110 nM
Oc1ccc(CN2CC(CNc3ccccc3)C3(C2)CN(c2ccccc2)C3)cc1 (stereo not shown) [NCGC00416032-01] | – | – | – | – | – | Activity direction (Decrease / Inactive) [3]: Inactive; Individual replicates / Log AC50 (M) [4]: -5.9373 Log AC50 (M) and -6.1873 Log AC50 (M); AC50 [4]: 818 nM; HepG2 viability signal, 1 uM, repeat 2 (HepG2-A16-CD81EGFP cells; nominal 1 uM (10 mM stock), […] for 15 mM, 1.2 uM for 12 mM, 2 uM for 20 mM stock, average of 2 wells, repeat 2): 101.59%; HepG2 viability signal, 3 uM, repeat 2 (HepG2-A16-CD81EGFP cells; nominal 3 uM (10 mM stock), 4.5 uM for 15 mM, 3.6 uM for 12 mM, 6 uM for 20 mM stock, average of 2 wells, repeat 2): 99.28%; Individual replicates / Log AC50 (M) [5]: -5.6373 Log AC50 (M) and -5.9873 Log AC50 (M); activity at 1 µM [2, 10]: 52.9%; activity at 1 µM [2, 11]: 59%; activity at 1 µM [2, 12]: 77.5%; activity at 3 µM [2, 13]: 5.3%; activity at 3 µM [2, 14]: 6.04%; activity at 3 µM [2, 15]: 8.95%; AC50 [2, 8]: 1410 nM; AC50 [2, 9]: 1410 nM; AC50 [6]: 611 nM; viability at 48 h, 1 µM (in vitro): 106%; viability at 48 h, 3 µM (in vitro): 106%
CCCN1C(CC(C)C)=N[S+](=O)([O-])c2cc(NC(=O)c3ccco3)ccc21 [NCGC00473219-01] | – | – | – | – | – | Activity direction (Decrease / Inactive) [3]: Inactive; Individual replicates / Log AC50 (M) [4]: -6.1986 Log AC50 (M) and -5.7986 Log AC50 (M) and -6.3486 Log AC50 (M); HepG2 viability signal, 1 uM, repeat 2 (HepG2-A16-CD81EGFP cells): 101.29%; HepG2 viability signal, 3 uM, repeat 2 (HepG2-A16-CD81EGFP cells): 102.75%; Individual replicates / Log AC50 (M) [5]: -5.5986 Log AC50 (M) and -5.4986 Log AC50 (M) and -5.2486 Log AC50 (M); Max Resp (signal direction of the dose response) [2]: Decrease; activity at 1 µM [2, 10]: 32.3%; activity at 1 µM [2, 11]: 25.4%; activity at 1 µM [2, 12]: 19.9%; activity at 3 µM [2, 13]: 11.9%; activity at 3 µM [2, 14]: 8.91%; activity at 3 µM [2, 15]: 10.7%; AC50 [2, 8]: 631 nM; AC50 [2, 9]: 631 nM; AC50 [6]: 7500 nM; viability at 48 h, 1 µM (in vitro): 103%; viability at 48 h, 3 µM (in vitro): 105%
C[C@H]1[C@@H](O)O[C@@H]2O[C@@]3(C)CC[C@H]4[C@H](C)CC[C@@H]1[C@@]24OO3 [dihydroartemisinin, reference compound] | – | – | – | – | – | AC50 ([1]; Plasmodium falciparum, DD2, 72 h, SYBR Green 72 h, read-out: AC50, Dd2 ABS parasites): 2 nM
